Experiments:
Integrin alpha-V/beta-3 [1] = molecular target: T1, Integrin alpha-V/beta-3 (Homo sapiens, UniProt P05106+P06756); test: Inhibition of binding to alpha v beta 3 receptor; assay type: protein-complex assay
Integrin alpha-V/beta-3 [2] = molecular target: T1, Integrin alpha-V/beta-3; test: Inhibition of alpha v beta 3 receptor binding; assay type: protein-complex assay
[3] = Half life of compound is determined in dogs; assay type: ADME, Canis lupus familiaris; conditions: dog, in vivo
[4] = Partition coefficient (logP); assay type: physicochemical; conditions: octanol/water
[5] = Concentration required for plasma clearance is determined in dogs; assay type: ADME, organism-based, Canis lupus familiaris; conditions: dog
[6] = Oral bioavailability in dog; assay type: ADME, organism-based, Canis lupus familiaris; conditions: in vivo

T1 sequence (P05106 27-788 limits assumed): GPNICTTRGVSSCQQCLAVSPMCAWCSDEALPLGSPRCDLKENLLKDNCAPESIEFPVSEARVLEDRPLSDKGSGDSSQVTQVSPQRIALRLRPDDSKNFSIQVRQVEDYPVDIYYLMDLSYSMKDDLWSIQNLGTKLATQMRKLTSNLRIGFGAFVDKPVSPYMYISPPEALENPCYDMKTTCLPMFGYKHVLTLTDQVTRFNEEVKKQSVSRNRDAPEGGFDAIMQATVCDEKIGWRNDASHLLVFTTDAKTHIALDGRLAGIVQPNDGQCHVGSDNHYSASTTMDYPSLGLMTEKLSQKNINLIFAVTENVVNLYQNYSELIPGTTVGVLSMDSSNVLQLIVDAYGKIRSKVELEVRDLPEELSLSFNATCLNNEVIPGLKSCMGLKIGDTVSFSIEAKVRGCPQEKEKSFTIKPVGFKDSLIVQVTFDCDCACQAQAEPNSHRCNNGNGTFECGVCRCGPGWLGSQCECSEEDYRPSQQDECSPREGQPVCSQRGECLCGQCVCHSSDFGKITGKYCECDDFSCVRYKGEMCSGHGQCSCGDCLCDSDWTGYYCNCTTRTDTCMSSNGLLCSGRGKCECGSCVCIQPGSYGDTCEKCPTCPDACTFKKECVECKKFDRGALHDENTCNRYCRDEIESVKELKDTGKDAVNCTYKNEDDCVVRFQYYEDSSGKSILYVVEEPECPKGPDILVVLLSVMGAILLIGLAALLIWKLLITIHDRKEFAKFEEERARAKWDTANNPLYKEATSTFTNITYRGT
T1 sequence (P06756 31-889 limits assumed): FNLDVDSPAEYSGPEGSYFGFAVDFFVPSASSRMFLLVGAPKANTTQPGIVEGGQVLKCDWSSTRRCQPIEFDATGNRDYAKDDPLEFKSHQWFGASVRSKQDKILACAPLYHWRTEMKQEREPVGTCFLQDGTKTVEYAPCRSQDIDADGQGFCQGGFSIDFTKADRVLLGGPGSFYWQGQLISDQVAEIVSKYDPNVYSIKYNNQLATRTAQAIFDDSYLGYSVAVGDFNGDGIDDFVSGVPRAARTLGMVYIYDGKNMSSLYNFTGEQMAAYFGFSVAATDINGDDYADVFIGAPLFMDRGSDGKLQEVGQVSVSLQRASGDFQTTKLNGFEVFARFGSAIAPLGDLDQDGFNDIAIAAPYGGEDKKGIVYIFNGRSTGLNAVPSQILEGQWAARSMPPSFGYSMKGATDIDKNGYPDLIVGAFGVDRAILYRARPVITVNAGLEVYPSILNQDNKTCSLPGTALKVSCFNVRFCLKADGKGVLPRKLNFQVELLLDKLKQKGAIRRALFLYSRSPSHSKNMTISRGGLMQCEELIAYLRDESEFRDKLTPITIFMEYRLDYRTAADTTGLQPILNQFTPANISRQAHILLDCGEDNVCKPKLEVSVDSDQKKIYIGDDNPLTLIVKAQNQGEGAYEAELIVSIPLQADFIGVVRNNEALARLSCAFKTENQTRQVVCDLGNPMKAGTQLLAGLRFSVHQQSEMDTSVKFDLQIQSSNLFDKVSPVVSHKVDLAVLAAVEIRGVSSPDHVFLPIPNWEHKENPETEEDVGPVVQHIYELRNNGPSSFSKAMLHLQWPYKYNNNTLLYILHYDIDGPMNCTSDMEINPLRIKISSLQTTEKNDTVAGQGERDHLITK
T1 sequence (P06756 891-1048 limits assumed): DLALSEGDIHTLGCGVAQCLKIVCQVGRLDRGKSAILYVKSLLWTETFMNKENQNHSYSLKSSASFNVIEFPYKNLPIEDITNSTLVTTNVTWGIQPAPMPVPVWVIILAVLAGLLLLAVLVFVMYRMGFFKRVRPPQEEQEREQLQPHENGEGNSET

IC50 (Integrin alpha-V/beta-3 [1]) [nM]	IC50 (Integrin alpha-V/beta-3 [2]) [nM]	Compound	also measured
71.7	–	O=C(N[C@@H](CCCCCCCc1ccc2c(n1)NCCC2)C(=O)O)c1ccccc1	–
–	0.1	CC1(C)[C@@H]2CC[C@@]1(CS(=O)(=O)N[C@@H](CNC(=O)CCCCc1ccc3c(n1)NCCC3)C(=O)O)C(=O)C2	–
49.8	–	O=C(O)[C@H](CCCCCCCc1ccc2c(n1)NCCC2)NS(=O)(=O)C1CCCCC1	–
–	0.4	Cc1ccc(S(=O)(=O)N[C@@H](CNC(=O)CCCCc2ccc3c(n2)NCCC3)C(=O)O)cc1	–
34.5	–	O=C(O)[C@H](CCCCCCCc1ccc2c(n1)NCCC2)NS(=O)(=O)Cc1ccccc1	–
–	73.8	O=C(CCCCc1ccc2c(n1)NCCC2)NC[C@H](NC(=O)c1ccccc1)C(=O)O	–
–	1.8	O=C(CCCCc1ccc2c(n1)NCCC2)NC[C@H](NC(=O)OCc1ccccc1)C(=O)O	–
18.1	–	O=C(O)[C@H](CCCCCCCc1ccc2c(n1)NCCC2)NS(=O)(=O)CC1CCCCC1	–
0.8	–	CC1(C)[C@@H]2CC[C@@]1(CS(=O)(=O)N[C@@H](CCCCCCCc1ccc3c(n1)NCCC3)C(=O)O)C(=O)C2	–
11.2	–	O=C(O)[C@H](CCCCCCCc1ccc2c(n1)NCCC2)NS(=O)(=O)c1ccccc1	–
21.3	–	CCCCS(=O)(=O)N[C@@H](CCCCCCCc1ccc2c(n1)NCCC2)C(=O)O	–
4.7	–	O=C(NCc1ccccc1)N[C@@H](CCCCCCCc1ccc2c(n1)NCCC2)C(=O)O	–
6.1	–	O=C(N[C@@H](CCCCCCCc1ccc2c(n1)NCCC2)C(=O)O)OCc1ccccc1	–
–	0.3	O=C(CCCCc1ccc2c(n1)NCCC2)NC[C@H](NS(=O)(=O)c1ccccc1)C(=O)O	–
–	2.3	CCCCS(=O)(=O)N[C@@H](CNC(=O)CCCCc1ccc2c(n1)NCCC2)C(=O)O	–
51.6	–	O=C(Cc1ccccc1)N[C@@H](CCCCCCCc1ccc2c(n1)NCCC2)C(=O)O	half-life [3]: 19.2 h; logP [4]: 1.13; clearance [5]: 13 mL/min/kg; bioavailability [6]: 17%

Source: ChEMBL document CHEMBL1137175, “Nonpeptide alpha V beta 3 antagonists. Part 9: Improved pharmacokinetic profile through the use of an aliphatic, des-amide backbone” (Bioorg Med Chem Lett, 2004)
